Results taken from patent US20060234997A1, “Tetrahydro-pyridoazepin-8-ones and related compounds for the treatment of schizophrenia” (WARNER-LAMBERT COMPANY LLC, priority 2005, published 2006).
Counter-ions that a name gives are not always drawn. Marks after values point to notes of the source that are not given here.

Assays:
[1] = target: T1, Dopamine D2 receptor (hD2L) (Homo sapiens, UniProt P14416); assay: Dopamine D2 Receptor Binding Assay ([3H]spiperone, CHO-hD2L membranes); settings: [3H]spiperone 0.4 nM, membrane preparation from CHO-hD2L cells
T1 construct: expressed in transfected cells; host or cells: CHO cells (CHO-hD2L)
Excerpt: The ability of the novel compounds of this invention to bind to the dopamine D2 receptor can be determined using conventional radioligand receptor binding assays. All receptors can be heterologously expressed in cell lines and binding assays can be conducted in membrane preparations from the cell lines using procedures outlined below. IC50 concentrations can be determined by nonlinear regression of concentration-dependent reduction in specific binding. The Cheng-Prussoff equation can be used to convert the IC50 to Ki concentrations.
[^3H]Spiperone binding to a membrane preparation from CHO-hD2L cells was carried out in 250 μl of 50 mM Tris-HCl buffer containing 100 mM NaCl, 1 mM MgCl2 and 1% DMSO at pH 7.4. Duplicate samples containing (in order of addition) the test compounds, 0.4 nM [^3H]spiperone and approximately 12 μg protein were incubated for 120 minutes at room temperature. Bound radioligand was separated by rapid filtration under reduced pressure through Whatman GF/B glass fiber filters previously treated with 0.3% polyethyleneimine. Radioactivity retained on the filter is determined by liquid scintillation spectrophotometry.

[2] = system: spontaneous locomotor activity in rats; assay: Spontaneous Locomotor Activity Inhibition Test; type: in vivo, rat; settings: 60 min after dosing, recorded 1 hour, mean ± SEM
Excerpt: Potential therapeutic effects of 2-{4-[4-(7-Fluoro-naphthalen-1-yl)-piperazin-1-yl]-butoxy}-5,6,7,9-tetrahydro-1,7,9-triaza-benzocyclohepten-8-one (hereinafter the “test compound”) were investigated in a spontaneous locomotor activity inhibition test in rats, a behavioral test predictive of antipsychotic activity. (A. E. Corbin, et. al.: PD 158771, a potential antipsychotic agent with D2/D3 partial agonist and 5-HT1A agonist actions. II. Prelinical behavioral effects. Neuropharmacology 39: 1211-1221 (2000)) The testing was performed using 16-Beam Digiscan Animal Activity Monitors (Accuscan Electronics, Columbus, Ohio). Each test chamber consisted of a PLEXIGLAS® box measuring 16×16 inches. These boxes were housed inside stainless steel, ventilated sound-attenuating chambers (SACs). Lights inside the SACs were off. Male Sprague-Dawley rats (Harlan), weighing 180 to 200 g at the time of testing, were used. Rats were provided with food and water ad libitum, but were food deprived for 24 hours before testing. Rats were randomly assigned to vehicle or drug treatment groups, and were tested one per chamber. On the test day, rats were removed from the housing room and brought to the test room, where they were placed into PLEXIGLAS® isolator cages on corncob bedding, 4 rats per cage. Rats were dosed orally (PO) with the test compound or vehicle, and then returned to the isolators. After a 60-minute absorption period, each rat was placed into the test chamber, the chamber door closed, and recording of locomotor activity begun. Locomotor activity was recorded for 1 hour, in 5-minute blocks. The test compound was suspended in 1% cremophor EL, 1% HCl 1N, and 0.5% methocel in water. The test compound or the vehicle was administered in a volume of 5 mL/kg. Doses are expressed as the active moiety (ie, base). Locomotor activity was measured as centimeters traveled and expressed as percent inhibition from vehicle control. Statistical analysis was performed using a one-way ANOVA followed by a post hoc Dunnett's test. Data from the vehicle-treated control groups from each experiment were compared using a one-way ANOVA.

T1 sequence (P14416 whole entry): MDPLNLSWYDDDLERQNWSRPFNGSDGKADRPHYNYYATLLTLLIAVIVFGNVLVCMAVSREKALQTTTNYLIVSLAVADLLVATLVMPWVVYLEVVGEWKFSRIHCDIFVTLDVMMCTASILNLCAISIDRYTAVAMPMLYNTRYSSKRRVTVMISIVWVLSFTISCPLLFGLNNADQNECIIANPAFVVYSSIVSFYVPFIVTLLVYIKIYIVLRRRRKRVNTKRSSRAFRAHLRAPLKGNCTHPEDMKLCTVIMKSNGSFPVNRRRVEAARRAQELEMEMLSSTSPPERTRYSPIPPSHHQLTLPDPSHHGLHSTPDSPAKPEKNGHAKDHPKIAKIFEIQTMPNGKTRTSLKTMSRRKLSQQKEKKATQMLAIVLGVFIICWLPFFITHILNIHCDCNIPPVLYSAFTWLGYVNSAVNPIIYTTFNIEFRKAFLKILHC

| Compound | melting point | Ki [1] | also measured |
| --- | --- | --- | --- |
| O=C1NCCc2ccc(OCCCCN3CCN(c4cccc5ccccc45)CC3)nc2N1 (as salt: HCl) [Example 15, 2-[4-(4-Naphthalen-1-yl-piperazin-1-yl)-butoxy]-5,6,7,9-tetrahydro-1,7,9-triaza-benzocyclohepten-8-one] | 188 to 190 °C | – | – |
| CN1CCc2ccc(OCCCCN3CCN(c4cccc(Cl)c4Cl)CC3)cc2NC1=O [Example 25, 8-{4-[4-(2,3-Dichlorophenyl)piperazin-1-yl]butoxy}-3-methyl-1,3,4,5-tetrahydro-benzo[d][1,3]diazepin-2-one] | 139 to 140 °C | – | – |
| O=C1NCCc2ccc(OCCCCN3CCN(c4cccc5c4OCC5)CC3)nc2N1 [Example 19, 2-{4-[4-(2,3-Dihydro-benzofuran-7-yl)-piperazin-1-yl]-butoxy}-5,6,7,9-tetrahydro-1,7,9-triaza-benzocyclohepten-8-one] | 72 to 73 °C | 0.4 nM | – |
| O=C1NCCc2ccc(OCCCCN3CCN(c4cccc5ccc(F)cc45)CC3)nc2N1 (as salt: HCl) [Example 18, 2-{4-[4-(7-Fluoro-naphthalen-1-yl)-piperazin-1-yl]-butoxy}-5,6,7,9-tetrahydro-1,7,9-triaza-benzocyclohepten-8-one] | 234 °C | – | – |
| O=C1NCCc2ccc(OCCCCN3CCN(c4cccc(C5CC5)n4)CC3)cc2N1 [Example 37] | 155 to 156 °C | 1.81 nM | – |
| O=C1NCCc2ccc(OCCCCN3CCN(c4cccc5c4CCCC5)CC3)nc2N1 (as salt: HCl) [Example 16, 2-{4-[4-(5,6,7,8-Tetrahydro-naphthalen-1-yl)-piperazin-1-yl]-butoxy}-5,6,7,9-tetrahydro-1,7,9-triaza-benzocyclohepten-8-one] | 185 to 186 °C | – | – |
| CC1(C)CCC(=O)Nc2cc(OCCCN3CCN(c4cccc(Cl)c4Cl)CC3)ccc21 [Example 53, 8-{3-[4-(2,3-Dichlorophenyl)piperazin-1-yl]-propoxy}-5,5-dimethyl-1,3,4,5-tetrahydrobenzo[b]azepin-2-one] | 162 to 164 °C | – | – |
| O=C1NCCc2ccc(OCCCCN3CCN(c4cccc(Cl)c4Cl)CC3)nc2N1 (as salt: HCl) [Example 14, 2-{4-[4-(2,3-Dichloro-phenyl)-piperazin-1-yl]-butoxy}-5,6,7,9-tetrahydro-1,7,9-triaza-benzocyclohepten-8-one] | 197 to 199 °C | – | – |
| CC1(C)CNC(=O)Nc2cc(CCCCCN3CCN(c4cccc(Cl)c4Cl)CC3)ccc21 [Example 67, 8-{5-[4-(2,3-Dichlorophenyl)piperazin-1-yl]pentyl}-5,5-dimethyl-1,3,4,5-tetrahydro-benzo[d][1,3]diazepin-2-one Methanesulfonic Acid] | 215 to 218 °C | 25 nM | – |
| O=C1NCCc2ccc(OCCCCN3CCN(c4cccc(Cl)c4Cl)CC3)cc2N1 [Example 29, 8-{4-[4-(2,3-Dichlorophenyl)piperazin-1-yl]butoxy}-1,3,4,5-tetrahydrobenzo[d][1,3]diazepin-2-one] | 185 to 186 °C | – | – |
| CC1(C)CCc2ccc(OCCCCN3CCN(c4cccc(Cl)c4Cl)CC3)cc2NC1=O [Example 57, 8-{4-[4-(2,3-Dichlorophenyl)piperazin-1-yl]butoxy}-3,3-dimethyl-1,3,4,5-tetrahydrobenzo[b]azepin-2-one] | 110 to 112 °C | – | – |
| O=C1NCCc2ccc(OCCCCN3CCN(c4cccc5c4OCCC5)CC3)nc2N1 (as salt: HCl) [Example 17, 2-[4-(4-Chroman-8-yl-piperazin-1-yl)-butoxy]-5,6,7,9-tetrahydro-1,7,9-triaza-benzocyclohepten-8-one] | 154 to 156 °C | – | – |
| O=C1NCCc2ccc(CCCCCN3CCN(c4cccc(Cl)c4Cl)CC3)cc2N1 [Example 65] | 159 to 161 °C | 4.47 nM | – |
| O=C1NCCc2ccc(/C=C/CCCN3CCN(c4cccc(Cl)c4Cl)CC3)cc2N1 [Example 64] | 219 to 220 °C | 9.49 nM | – |
| O=C1NCCc2ccc(OCCCCN3CCN(c4cccc5c4CCC5)CC3)nc2N1 [Example 13, 2-[4-(4-Indan-4-yl-piperazin-1-yl)-butoxy]-5,6,7,9-tetrahydro-1,7,9-triaza-benzocyclohepten-8-one] | 70 to 72 °C | 0.59 nM | – |
| CC1(C)CCC(=O)Nc2cc(OCCCCN3CCN(c4cccc(Cl)c4Cl)CC3)ccc21 [Example 54, 8-{4-[4-(2,3-Dichlorophenyl)piperazin-1-yl]-butoxy}-5,5-dimethyl-1,3,4,5-tetrahydrobenzo[b]azepin-2-one] | 106 to 108 °C | – | – |
| O=C1NCCc2ccc(OCCCCN3CCN(c4cccc5c4OCCCO5)CC3)nc2N1 [Example 20, 2-{4-[4-(3,4-Dihydro-2H-benzo[b][1,4]dioxepin-6-yl)-piperazin-1-yl]-butoxy}-5,6,7,9-tetrahydro-1,7,9-triaza-benzocyclohepten-8-one] | 78 to 79 °C | 1 nM | – |
| CC1(C)CCC(=O)Nc2cc(OCCCCCN3CCN(c4cccc(Cl)c4Cl)CC3)ccc21 [Example 55, 8-{5-[4-(2,3-Dichlorophenyl)piperazin-1-yl]-pentyloxy}-5,5-dimethyl-1,3,4,5-tetrahydrobenzo[b]azepin-2-one] | 128 to 130 °C | – | – |
| O=C1NCCc2ccc(OCCCN3CCN(c4cccc(Cl)c4Cl)CC3)cc2N1 [Example 28, 8-{3-[4-(2,3-Dichlorophenyl)piperazin-1-yl]propoxy}-1,3,4,5-tetrahydrobenzo[d][1,3]diazepin-2-one] | 183 to 184 °C | – | – |
| O=C1NCCc2ccc(OCCCCN3CCN(c4cccc5ccc(F)cc45)CC3)nc2N1 [Example 18, 2-{4-[4-(7-Fluoro-naphthalen-1-yl)-piperazin-1-yl]-butoxy}-5,6,7,9-tetrahydro-1,7,9-triaza-benzocyclohepten-8-one] | – | 1.79 nM | Percent Decrease from Control (locomotor activity) ([2]; 0.1 mg/kg PO): 9.0 ± 37.9^c; Percent Decrease from Control (locomotor activity) ([2]; 0.3 mg/kg PO): 38.3 ± 47.2^bd; Percent Decrease from Control (locomotor activity) ([2]; 1 mg/kg PO): 53.7 ± 4.8^bd; Percent Decrease from Control (locomotor activity) ([2]; 3 mg/kg PO): 75.4 ± 3.5^cd |
| CC1(C)CCC(=O)Nc2cc(CCCCCN3CCN(c4cccc(Cl)c4Cl)CC3)ccc21 [Example 70, 8-{5-[4-(2,3-Dichlorophenyl)piperazin-1-yl]pentyl}-5,5-dimethyl-1,3,4,5-tetrahydrobenzo[b]azepin-2-one Methanesulfonic Acid] | 168 to 170 °C | 56.5 nM | – |
| CC1(C)CCC(=O)Nc2cc(/C=C/CCCN3CCN(c4cccc(Cl)c4Cl)CC3)ccc21 [Example 69] | 108 to 109 °C | 70.9 nM | – |
